Experimental data published in patent US20230072683A1, “PYRIDO-PYRIMIDIN DERIVATIVES AND PHARMACEUTICAL COMPOSITION, FOR USE IN PREVENTING OR TREATING PI3 KINASE RELATED DISEASES, COMPRISING SAME AS ACTIVE INGREDIENT” (BORYUNG PHARMACEUTICAL CO., LTD, priority 2019, published 2023).

Experiments:
[1] = target: DNA-PK(h) (Homo sapiens, UniProt P78527); assay: Evaluation of inhibitory activity against DNA-PK (HTRF kinase assay, GST-cMyc-p53 substrate); format: biochemical; conditions: for inhibition at 0.01 µM: compound concentration 0.01 μM, read-out: EXP_VALUE(% Inhibition) DNA-PK(h) 0.01 μM; for inhibition at 0.1 µM: compound concentration 0.1 μM, read-out: EXP_VALUE(% Inhibition) DNA-PK(h) 0.1 μM
Procedure, shortened: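 Human DNA-PK with 50 μM GST-cMyc-p53 substrate; reaction started with Mg/ATP, run 30 min at room temperature, stopped with EDTA. Phospho-Ser15 p53 detected by HTRF (Eu anti-phospho-Ser15, d2 anti-GST), signal = 10000×(Em 665/Em 620).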

[2] = target: PI3K-δ (PI3K(p1108/p857) (h)) (Homo sapiens, UniProt O00329); assay: Evaluation of inhibitory activity against PI3K-δ (HTRF kinase assay); format: biochemical; conditions: for inhibition at 0.01 µM: compound concentration 0.01 μM, read-out: EXP_VALUE(% Inhibition) PI3K-δ 0.01 μM; for inhibition at 0.1 µM: compound concentration 0.1 μM, read-out: EXP_VALUE(% Inhibition) PI3K-δ 0.1 μM
Sequence of PI3K-δ (PI3K(p1108/p857) (h)) (O00329 whole entry, the tested form may be a part): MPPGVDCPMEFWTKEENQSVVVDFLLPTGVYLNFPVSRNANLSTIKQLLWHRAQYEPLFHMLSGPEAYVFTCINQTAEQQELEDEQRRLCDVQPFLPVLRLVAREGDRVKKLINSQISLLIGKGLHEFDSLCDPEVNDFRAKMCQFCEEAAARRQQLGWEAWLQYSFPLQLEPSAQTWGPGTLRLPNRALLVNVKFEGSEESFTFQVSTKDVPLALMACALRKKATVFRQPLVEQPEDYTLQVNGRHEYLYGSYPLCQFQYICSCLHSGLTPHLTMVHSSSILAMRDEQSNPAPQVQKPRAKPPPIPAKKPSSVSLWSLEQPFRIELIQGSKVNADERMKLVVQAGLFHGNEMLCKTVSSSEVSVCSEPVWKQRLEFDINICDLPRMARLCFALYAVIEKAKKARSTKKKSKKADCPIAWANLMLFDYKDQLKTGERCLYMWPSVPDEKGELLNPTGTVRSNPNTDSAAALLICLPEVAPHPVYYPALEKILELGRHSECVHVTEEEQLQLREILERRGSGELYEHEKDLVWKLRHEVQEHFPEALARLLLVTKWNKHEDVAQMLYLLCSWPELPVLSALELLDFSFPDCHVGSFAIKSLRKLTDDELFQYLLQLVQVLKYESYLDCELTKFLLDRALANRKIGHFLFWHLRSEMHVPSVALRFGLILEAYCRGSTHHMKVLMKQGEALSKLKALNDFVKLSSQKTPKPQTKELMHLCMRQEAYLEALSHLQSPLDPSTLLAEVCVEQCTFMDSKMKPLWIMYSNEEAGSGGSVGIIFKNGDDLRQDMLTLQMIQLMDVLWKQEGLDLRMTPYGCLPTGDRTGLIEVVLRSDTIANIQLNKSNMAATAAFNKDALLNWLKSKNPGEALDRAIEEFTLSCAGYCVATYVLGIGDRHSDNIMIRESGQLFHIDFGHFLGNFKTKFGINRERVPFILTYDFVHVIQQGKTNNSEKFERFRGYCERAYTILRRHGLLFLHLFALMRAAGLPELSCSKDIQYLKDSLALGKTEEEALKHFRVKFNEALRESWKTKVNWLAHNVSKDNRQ
Sequence of PI3K-δ (PI3K(p1108/p857) (h)) (P27986 whole entry partner, the tested form may be a part): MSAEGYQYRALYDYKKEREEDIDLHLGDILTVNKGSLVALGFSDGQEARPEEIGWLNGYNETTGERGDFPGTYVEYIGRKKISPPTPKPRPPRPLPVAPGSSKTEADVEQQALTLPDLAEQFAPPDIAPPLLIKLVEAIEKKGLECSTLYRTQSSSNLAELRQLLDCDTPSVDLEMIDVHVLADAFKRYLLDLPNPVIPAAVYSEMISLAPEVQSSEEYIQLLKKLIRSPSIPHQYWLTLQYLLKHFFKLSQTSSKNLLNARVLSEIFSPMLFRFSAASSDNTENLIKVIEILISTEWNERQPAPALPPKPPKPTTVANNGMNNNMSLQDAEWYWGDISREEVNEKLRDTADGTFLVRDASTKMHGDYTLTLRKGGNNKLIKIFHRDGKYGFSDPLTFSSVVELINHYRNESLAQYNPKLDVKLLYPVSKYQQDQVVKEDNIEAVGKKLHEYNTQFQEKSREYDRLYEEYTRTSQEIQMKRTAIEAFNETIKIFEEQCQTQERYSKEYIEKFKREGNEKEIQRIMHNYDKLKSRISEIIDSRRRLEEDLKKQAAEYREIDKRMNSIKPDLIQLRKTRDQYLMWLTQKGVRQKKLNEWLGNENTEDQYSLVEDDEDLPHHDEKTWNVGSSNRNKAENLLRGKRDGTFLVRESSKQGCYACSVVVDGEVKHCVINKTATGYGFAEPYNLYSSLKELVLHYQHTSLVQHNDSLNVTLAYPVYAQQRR
Procedure, shortened: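 HTRF read-out (665/620 nm ratio ×10000) used Eu-labelled anti-GST, GST-tagged GRP1 PH domain and streptavidin-allophycocyanin after EDTA/PIP3 stop.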

inhibition at 0.01 µM [1] [%]	inhibition at 0.1 µM [1] [%]	inhibition at 0.01 µM [2] [%]	inhibition at 0.1 µM [2] [%]	SMILES
16	66	63	95	C[C@H](Nc1ncnc2[nH]ccc(=O)c12)c1c(Cl)c2cccc(-c3cc(F)cc(Cl)c3)c2c(=O)n1-c1ccccc1 [Example 104, (S)-4-((1-(4-chloro-8-(3-chloro-5-fluorophenyl)-1-oxo-2-phenyl-1,2-dihydroisoquinolin-3-yl)ethyl)amino)pyrido[2,3-d]pyrimidin-5(8H)-one]
12	75	75	103	C[C@H](Nc1ncnc2[nH]ccc(=O)c12)c1c(Cl)c2cccc(-c3ccc(-c4ccncc4)cc3)c2c(=O)n1-c1ccccc1 [Example 105, (S)-4-((1-(4-chloro-1-oxo-2-phenyl-8-(4-(pyridin-4-yl)phenyl)-1,2-dihydroisoquinolin-3-yl)ethyl)amino)pyrido[2,3-d]pyrimidin-5(8H)-one]
14	59	53	87	C[C@H](Nc1ncnc2[nH]ccc(=O)c12)c1c(Cl)c2cccc(-c3cccc(F)c3Cl)c2c(=O)n1-c1ccccc1 [Example 106, (S)-4-((1-(4-chloro-8-(2-chloro-3-fluorophenyl)-1-oxo-2-phenyl-1,2-dihydroisoquinolin-3-yl)ethyl)amino)pyrido[2,3-d]pyrimidin-5(8H)-one]
24	54	59	91	C[C@H](Nc1ncnc2[nH]ccc(=O)c12)c1c(Cl)c2cccc(-c3cc(F)ccc3Cl)c2c(=O)n1-c1ccccc1 [Example 107, (S)-4-((1-(4-chloro-8-(2-chloro-5-fluorophenyl)-1-oxo-2-phenyl-1,2-dihydroisoquinolin-3-yl)ethyl)amino)pyrido[2,3-d]pyrimidin-5(8H)-one]
7	66	99	102	C[C@H](Nc1ncnc2[nH]ccc(=O)c12)c1c(Cl)c2cccc(-c3cc(O)cc(F)c3)c2c(=O)n1-c1ccccc1 [Example 108, (S)-4-((1-(4-chloro-8-(3-fluoro-5-hydroxyphenyl)-1-oxo-2-phenyl-1,2-dihydroisoquinolin-3-yl)ethyl)amino)pyrido[2,3-d]pyrimidin-5(8H)-one]
10	65	61	94	Cc1c(F)cccc1-c1cccc2c(Cl)c([C@H](C)Nc3ncnc4[nH]ccc(=O)c34)n(-c3ccccc3)c(=O)c12 [Example 109, (S)-4-((1-(4-chloro-8-(3-fluoro-2-methylphenyl)-1-oxo-2-phenyl-1,2-dihydroisoquinolin-3-yl)ethyl)amino)pyrido[2,3-d]pyrimidin-5(8H)-one]
57	91	93	97	Cc1ncccc1-c1cccc2c(Cl)c([C@H](C)Nc3ncnc4[nH]ccc(=O)c34)n(-c3ccccc3)c(=O)c12 [Example 110, (S)-4-((1-(4-chloro-8-(2-methylpyridin-3-yl)-1-oxo-2-phenyl-1,2-dihydroisoquinolin-3-yl)ethyl)amino)pyrido[2,3-d]pyrimidin-5(8H)-one]

The remaining lines, values behind:

SMILES	inhibition at 0.01 µM [1] [%]	inhibition at 0.1 µM [1] [%]	inhibition at 0.01 µM [2] [%]	inhibition at 0.1 µM [2] [%]
C[C@H](Nc1ncnc2[nH]ccc(=O)c12)c1c(Cl)c2cccc(-c3cnn(C4CC4)c3)c2c(=O)n1-c1ccccc1 [Example 96, (S)-4-((1-(4-chloro-8-(1-cyclopropyl-1H-pyrazol-4-yl)-1-oxo-2-phenyl-1,2-dihydroisoquinolin-3-yl)ethyl)amino)pyrido[2,3-d]pyrimidin-5(8H)-one]	78	100	86	97
C[C@H](Nc1ncnc2[nH]ccc(=O)c12)c1c(Cl)c2cccc(-c3cccc(Cl)c3)c2c(=O)n1-c1ccccc1 [Example 97, (S)-4-((1-(4-chloro-8-(3-chlorophenyl)-1-oxo-2-phenyl-1,2-dihydroisoquinolin-3-yl)ethyl)amino)pyrido[2,3-d]pyrimidin-5(8H)-one]	35	87	84	99
Cc1ccc(-c2cccc3c(Cl)c([C@H](C)Nc4ncnc5[nH]ccc(=O)c45)n(-c4ccccc4)c(=O)c23)o1 [Example 98, (S)-4-((1-(4-chloro-8-(5-methylfuran-2-yl)-1-oxo-2-phenyl-1,2-dihydroisoquinolin-3-yl)ethyl)amino)pyrido[2,3-d]pyrimidin-5(8H)-one]	84	98	66	91
COc1cc(-c2cccc3c(Cl)c([C@H](C)Nc4ncnc5[nH]ccc(=O)c45)n(-c4ccccc4)c(=O)c23)ccc1Cl [Example 99, (S)-4-((1-(4-chloro-8-(4-chloro-3-methoxyphenyl)-1-oxo-2-phenyl-1,2-dihydroisoquinolin-3-yl)ethyl)amino)pyrido[2,3-d]pyrimidin-5(8H)-one]	54	95	83	108
COc1cc(-c2cccc3cc([C@H](C)Nc4ncnc5[nH]ccc(=O)c45)n(-c4ccccc4)c(=O)c23)ccc1Cl [Example 100, (S)-4-((1-(8-(4-chloro-3-methoxyphenyl)-1-oxo-2-phenyl-1,2-dihydroisoquinolin-3-yl)ethyl)amino)pyrido[2,3-d]pyrimidin-5(8H)-one]	17	54	82	104
CC(C)Oc1ccc(-c2cccc3c(Cl)c([C@H](C)Nc4ncnc5[nH]ccc(=O)c45)n(-c4ccccc4)c(=O)c23)cn1 [Example 101, (S)-4-((1-(4-chloro-8-(6-isopropoxypyridin-3-yl)-1-oxo-2-phenyl-1,2-dihydroisoquinolin-3-yl)ethyl)amino)pyrido[2,3-d]pyrimidin-5(8H)-one]	68	94	90	102
C[C@H](Nc1ncnc2[nH]ccc(=O)c12)c1c(Cl)c2cccc(-c3cncnc3)c2c(=O)n1-c1ccccc1 [Example 102, (S)-4-((1-(4-chloro-1-oxo-2-phenyl-8-(pyrimidin-5-yl)-1,2-dihydroisoquinolin-3-yl)ethyl)amino)pyrido[2,3-d]pyrimidin-5(8H)-one]	73	94	110	105
COc1cc(-c2cccc3c(Cl)c([C@H](C)Nc4ncnc5[nH]ccc(=O)c45)n(-c4ccccc4)c(=O)c23)cc(OC)c1OC [Example 103, (S)-4-((1-(4-chloro-1-oxo-2-phenyl-8-(3,4,5-trimethoxyphenyl)-1,2-dihydroisoquinolin-3-yl)ethyl)amino)pyrido[2,3-d]pyrimidin-5(8H)-one]	91	101	91	103
